The results in this text go back to US9381683B2, “Films and methods of manufacture” (priority 2011, dated 2016).

Series [1] can be described thus: Stability of gentamicin sulfate to manufacturing conditions (heat, organic solvents). It is filed as physicochemical. From the text: In one embodiment, the drug selected must be stable during the manufacturing processes required to fabricate the implant.
A short description of the next series: Water solubility. It is filed as physicochemical. An excerpt:
In vitro testing has shown that due to its poor water solubility, triclosan is released from these films only slowly over […] period, with minimal initial burst release.

Take Gentamicin sulfate: the “thermal stability (thermally stable above)” value in series [1] was “above 100 °C”. In series [1] (organic solvents including DMSO), the “stability to organic solvents” value is recorded as “stable”.
For `Oc1cc(Cl)ccc1Oc1ccc(Cl)cc1Cl` [triclosan, 2,4,4′-trichloro-2′-hydroxydiphenyl ether], in “Water solubility”, the water solubility entry is “poor”.
